In PubChem BioAssay (NCI):
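Growth conditions: 96-well plates. Treatment: test compound, 48 hours, 5 concentrations. Analysis: linear interpolation between bracketing concentrations; unreached endpoints set to highest concentration. At the GI50, growth is halved. TGI: concentration producing complete growth inhibition.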

Experiments:
Test in all cases: NCI anticancer screen, dose series, 48 h
[1] = system: SF-539 CNS
[2] = system: HS 578T breast
[3] = system: SR leukemia
[4] = system: SK-MEL-28 melanoma
[5] = system: UACC-62 melanoma
[6] = system: SK-MEL-5 melanoma
[7] = system: OVCAR-8 ovarian
[8] = system: LOX IMVI melanoma
[9] = system: MDA-MB-231 breast
[10] = system: HCT-116 colon
[11] = system: SW-620 colon
[12] = system: HOP-62 NSCLC
[13] = system: NCI-H23 lung
[14] = system: SF-268 CNS
[15] = system: KM12 colon
[16] = system: NCI-H522 lung
[17] = system: HL-60(TB) leukemia
[18] = system: RPMI-8226 leukemia
[19] = system: HT29 colon
[20] = system: SNB-19 CNS
[21] = system: U251 CNS
[22] = system: CCRF-CEM leukemia
[23] = system: PC-3 prostate
[24] = system: NCI-H460 lung
[25] = system: T-47D breast
[26] = system: OVCAR-4 ovarian
[27] = system: UACC-257 melanoma
[28] = system: MOLT-4 leukemia
[29] = system: ACHN renal
[30] = system: SK-MEL-2 melanoma
[31] = system: BT-549 breast
[32] = system: OVCAR-5 ovarian
[33] = system: A549 NSCLC
[34] = system: SK-OV-3 ovarian
[35] = system: TK-10 renal
[36] = system: HCT-15 colon
[37] = system: EKVX NSCLC
[38] = system: HCC-2998 colon
[39] = system: SNB-75 CNS
[40] = system: RXF 393 renal
[41] = system: DU-145 prostate
[42] = system: HOP-92 NSCLC
[43] = system: 786-0 renal
[44] = system: SN12C renal
[45] = system: MDA-MB-435
[46] = system: CAKI-1 renal
[47] = system: A498 renal
[48] = system: NCI/ADR-RES ovarian
[49] = system: MCF7 breast
[50] = system: COLO 205 colon
[51] = system: M14 melanoma
[52] = system: OVCAR-3 ovarian
[53] = system: NCI-H226 lung
[54] = system: MALME-3M melanoma
[55] = system: K-562 leukemia
[56] = system: IGROV1 ovarian
[57] = system: UO-31 renal
[58] = system: SF-295 CNS

CCCCCCNC(=O)n1cc(F)c(=O)[nH]c1=O
GI50 [1]: 0.514 µM | TGI [1]: 15.1 µM | GI50 [2]: 52 µM | TGI [2]: > 100 µM | GI50 [3]: 1.44 µM | TGI [3]: 21.3 µM | GI50 [4]: 3.96 µM | TGI [4]: 27.7 µM | GI50 [5]: 2.8 µM | TGI [5]: 25 µM | GI50 [6]: 3.54 µM | TGI [6]: 27.1 µM | GI50 [7]: 3.29 µM | TGI [7]: 24.1 µM | GI50 [8]: 2060 nM | TGI [8]: 16.3 µM | GI50 [9]: 10.2 µM | TGI [9]: 24.5 µM | GI50 [10]: 1.99 µM | TGI [10]: 15.3 µM | GI50 [11]: 3.48 µM | TGI [11]: 20.7 µM | GI50 [12]: 7.09 µM | TGI [12]: 21.5 µM | GI50 [13]: 6.26 µM | TGI [13]: 49.1 µM | GI50 [14]: 9.07 µM | TGI [14]: 87.9 µM | GI50 [15]: 4.43 µM | TGI [15]: > 100 µM | GI50 [16]: 10.7 µM | TGI [16]: 25 µM | GI50 [17]: 6.84 µM | TGI [17]: 30.6 µM | GI50 [18]: 2380 nM | TGI [18]: 32.2 µM | GI50 [19]: 2.43 µM | TGI [19]: 19.3 µM | GI50 [20]: 7.48 µM | TGI [20]: 56.3 µM | GI50 [21]: 4.27 µM | TGI [21]: 17.5 µM | GI50 [22]: 3.2 µM | TGI [22]: 26.7 µM | GI50 [23]: 10.1 µM | TGI [23]: 27.3 µM | GI50 [24]: 0.564 µM | TGI [24]: 17.7 µM | GI50 [25]: 11.7 µM | TGI [25]: 47.5 µM | GI50 [26]: 14 µM | TGI [26]: 39.1 µM | GI50 [27]: 4.22 µM | TGI [27]: 26.4 µM | GI50 [28]: 7.28 µM | TGI [28]: 44.2 µM | GI50 [29]: 4.86 µM | TGI [29]: 23 µM | GI50 [30]: 12 µM | TGI [30]: 35.2 µM | GI50 [31]: 2.56 µM | TGI [31]: 24.9 µM | GI50 [32]: 12.8 µM | TGI [32]: 37.2 µM | GI50 [33]: 0.738 µM | TGI [33]: > 100 µM | GI50 [34]: 11.1 µM | TGI [34]: 91.1 µM | GI50 [35]: 4.71 µM | TGI [35]: 22.7 µM | GI50 [36]: 4.26 µM | TGI [36]: 28.7 µM | GI50 [37]: 21.1 µM | TGI [37]: > 100 µM | GI50 [38]: 0.287 µM | TGI [38]: 18.4 µM | GI50 [39]: 7.51 µM | TGI [39]: 43 µM | GI50 [40]: 6.22 µM | TGI [40]: 20.3 µM | GI50 [41]: 5.38 µM | TGI [41]: > 100 µM | GI50 [42]: 14.8 µM | TGI [42]: 50 µM | GI50 [43]: 10.6 µM | TGI [43]: 23.4 µM | GI50 [44]: 4.29 µM | TGI [44]: 24.3 µM | GI50 [45]: 1.21 µM | TGI [45]: 24.2 µM | GI50 [46]: 1.64 µM | TGI [46]: 18.4 µM | GI50 [47]: 18 µM | TGI [47]: > 100 µM | GI50 [48]: 12 µM | TGI [48]: 92.5 µM | GI50 [49]: 0.65 µM | TGI [49]: 16.8 µM | GI50 [50]: 2.09 µM | TGI [50]: 18.4 µM | GI50 [51]: 7.77 µM | TGI [51]: 23.9 µM | GI50 [52]: 11.1 µM | TGI [52]: > 100 µM | GI50 [53]: 10.6 µM | TGI [53]: 23.3 µM

COc1cc(/C=C2\CC3C4CC=C5C[C@@H](O)CC[C@]5(C)C4CC[C@]3(C)C2=O)ccc1OCCCn1ccnc1 (stereo partly specified)
GI50 [1]: 15.7 µM | TGI [1]: 31.1 µM | GI50 [2]: 26.9 µM | TGI [2]: 53.7 µM | GI50 [54]: 17.3 µM | TGI [54]: 36.9 µM | GI50 [3]: 24.1 µM | TGI [3]: 41.9 µM | GI50 [4]: 28.9 µM | TGI [4]: > 100 µM | GI50 [5]: 17.3 µM | TGI [5]: 35.3 µM | GI50 [55]: 17.6 µM | TGI [55]: 39.2 µM | GI50 [6]: 14.1 µM | TGI [6]: 27 µM | GI50 [7]: 17.1 µM | TGI [7]: 47.5 µM | GI50 [8]: 509 nM | TGI [8]: 16.4 µM | GI50 [9]: 27.1 µM | TGI [9]: 65.6 µM | GI50 [10]: 16.1 µM | TGI [10]: 33.4 µM | GI50 [11]: 24.4 µM | TGI [11]: 52.9 µM | GI50 [12]: 19.4 µM | TGI [12]: 34.1 µM | GI50 [13]: 18.1 µM | TGI [13]: 32.9 µM | GI50 [14]: 18.2 µM | TGI [14]: 40.2 µM | GI50 [15]: 25.2 µM | TGI [15]: 54.8 µM | GI50 [16]: 17.1 µM | TGI [16]: 37.3 µM | GI50 [17]: 19.4 µM | TGI [17]: 37.3 µM | GI50 [19]: 13.7 µM | TGI [19]: > 100 µM | GI50 [20]: 38.8 µM | TGI [20]: > 100 µM | GI50 [21]: 15 µM | TGI [21]: 32.8 µM | GI50 [22]: 18 µM | TGI [22]: 34.8 µM | GI50 [23]: > 100 µM | TGI [23]: > 100 µM | GI50 [24]: 18.6 µM | TGI [24]: 44 µM | GI50 [25]: 29.3 µM | TGI [25]: > 100 µM | GI50 [26]: 41.5 µM | TGI [26]: > 100 µM | GI50 [27]: 15.8 µM | TGI [27]: 35.3 µM | GI50 [28]: 20.8 µM | TGI [28]: 41.8 µM | GI50 [29]: 11.2 µM | TGI [29]: 24.7 µM | GI50 [31]: 16.5 µM | TGI [31]: 44.3 µM | GI50 [32]: 20.2 µM | TGI [32]: 41.9 µM | GI50 [33]: 17.1 µM | TGI [33]: 56.4 µM | GI50 [34]: 29.1 µM | TGI [34]: > 100 µM | GI50 [56]: 23.7 µM | TGI [56]: 52.8 µM | GI50 [35]: 20.4 µM | TGI [35]: 35.9 µM | GI50 [36]: 10.2 µM | TGI [36]: 31.3 µM | GI50 [37]: 17 µM | TGI [37]: 47.4 µM | GI50 [38]: 14.8 µM | TGI [38]: 28.3 µM | GI50 [40]: 12.6 µM | TGI [40]: 34.8 µM | GI50 [41]: 15.4 µM | TGI [41]: 29.6 µM | GI50 [42]: 14.2 µM | TGI [42]: 32.6 µM | GI50 [43]: 17.3 µM | TGI [43]: 31.3 µM | GI50 [44]: 17 µM | TGI [44]: 33.7 µM | GI50 [45]: 16.8 µM | TGI [45]: 34 µM | GI50 [57]: 19.6 µM | TGI [57]: 55.2 µM | GI50 [46]: 19.1 µM | TGI [46]: 39.8 µM | GI50 [47]: 25.5 µM | TGI [47]: 44.2 µM | GI50 [48]: 15.4 µM | TGI [48]: 31.7 µM | GI50 [49]: 18.8 µM | TGI [49]: 37.7 µM | GI50 [58]: 13.4 µM | TGI [58]: 27.5 µM | GI50 [50]: 26.4 µM | TGI [50]: > 100 µM | GI50 [51]: 15.2 µM | TGI [51]: 33.3 µM | GI50 [52]: 19.1 µM | TGI [52]: 39.4 µM | GI50 [53]: 19.6 µM | TGI [53]: 39.2 µM
